PubChem BioAssay (NCI)
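Compound exposure: 48 hours, 5 concentrations, 96-well plates. Here, GI50 denotes the concentration required for 50% inhibition of growth. At the TGI there is no net growth.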

Experiments:
Test in all cases: DTP human tumour cell line panel, 48 h
MDA-MB-231 breast = tested on: MDA-MB-231 breast
NCI-H23 lung = tested on: NCI-H23 lung
IGROV1 ovarian = tested on: IGROV1 ovarian
BT-549 breast = tested on: BT-549 breast
786-0 renal = tested on: 786-0 renal
OVCAR-3 ovarian = tested on: OVCAR-3 ovarian
LOX IMVI melanoma = tested on: LOX IMVI melanoma
NCI-H226 lung = tested on: NCI-H226 lung
HCC-2998 colon = tested on: HCC-2998 colon
HT29 colon = tested on: HT29 colon
SW-620 colon = tested on: SW-620 colon
UO-31 renal = tested on: UO-31 renal
SK-OV-3 ovarian = tested on: SK-OV-3 ovarian
SK-MEL-28 melanoma = tested on: SK-MEL-28 melanoma
U251 CNS = tested on: U251 CNS
SF-539 CNS = tested on: SF-539 CNS
CAKI-1 renal = tested on: CAKI-1 renal
NCI/ADR-RES ovarian = tested on: NCI/ADR-RES ovarian
RXF 393 renal = tested on: RXF 393 renal
HL-60(TB) leukemia = tested on: HL-60(TB) leukemia
A549 NSCLC = tested on: A549 NSCLC
MALME-3M melanoma = tested on: MALME-3M melanoma
SF-268 CNS = tested on: SF-268 CNS
NCI-H522 lung = tested on: NCI-H522 lung
TK-10 renal = tested on: TK-10 renal
MDA-MB-435 = tested on: MDA-MB-435
SNB-75 CNS = tested on: SNB-75 CNS
A498 renal = tested on: A498 renal
KM12 colon = tested on: KM12 colon
HOP-62 NSCLC = tested on: HOP-62 NSCLC
K-562 leukemia = tested on: K-562 leukemia
UACC-62 melanoma = tested on: UACC-62 melanoma
OVCAR-5 ovarian = tested on: OVCAR-5 ovarian
CCRF-CEM leukemia = tested on: CCRF-CEM leukemia
SN12C renal = tested on: SN12C renal
OVCAR-4 ovarian = tested on: OVCAR-4 ovarian
DU-145 prostate = tested on: DU-145 prostate
ACHN renal = tested on: ACHN renal
T-47D breast = tested on: T-47D breast
M14 melanoma = tested on: M14 melanoma
SK-MEL-2 melanoma = tested on: SK-MEL-2 melanoma
MCF7 breast = tested on: MCF7 breast
OVCAR-8 ovarian = tested on: OVCAR-8 ovarian
HCT-116 colon = tested on: HCT-116 colon
PC-3 prostate = tested on: PC-3 prostate
NCI-H460 lung = tested on: NCI-H460 lung
EKVX NSCLC = tested on: EKVX NSCLC
SNB-19 CNS = tested on: SNB-19 CNS
HOP-92 NSCLC = tested on: HOP-92 NSCLC
HS 578T breast = tested on: HS 578T breast
MOLT-4 leukemia = tested on: MOLT-4 leukemia
UACC-257 melanoma = tested on: UACC-257 melanoma
SK-MEL-5 melanoma = tested on: SK-MEL-5 melanoma
COLO 205 colon = tested on: COLO 205 colon
HCT-15 colon = tested on: HCT-15 colon
SF-295 CNS = tested on: SF-295 CNS
RPMI-8226 leukemia = tested on: RPMI-8226 leukemia

CCCN1CCC=C(c2ccc(Nc3nc(Nc4ccccc4C(N)=O)c4cc[nH]c4n3)c(C)c2)C1
GI50 (MDA-MB-231 breast): > 16.6 µM
TGI (MDA-MB-231 breast): > 25 µM
GI50 (NCI-H23 lung): 8.16 µM
TGI (NCI-H23 lung): > 25 µM
GI50 (IGROV1 ovarian): 8.29 µM
TGI (IGROV1 ovarian): > 25 µM
GI50 (BT-549 breast): 17.2 µM
TGI (BT-549 breast): > 25 µM
GI50 (786-0 renal): 17.3 µM
TGI (786-0 renal): > 25 µM
GI50 (OVCAR-3 ovarian): 17.9 µM
TGI (OVCAR-3 ovarian): > 25 µM
GI50 (LOX IMVI melanoma): 1.77 µM
TGI (LOX IMVI melanoma): > 25 µM
GI50 (NCI-H226 lung): > 17.7 µM
TGI (NCI-H226 lung): > 25 µM
GI50 (HCC-2998 colon): 5.7 µM
TGI (HCC-2998 colon): > 25 µM
GI50 (HT29 colon): 0.407 µM
TGI (HT29 colon): > 13.2 µM
GI50 (SW-620 colon): 1.48 µM
TGI (SW-620 colon): > 25 µM
GI50 (UO-31 renal): 2.98 µM
TGI (UO-31 renal): > 25 µM
GI50 (SK-OV-3 ovarian): 9.68 µM
TGI (SK-OV-3 ovarian): > 25 µM
GI50 (SK-MEL-28 melanoma): > 23.8 µM
TGI (SK-MEL-28 melanoma): > 25 µM
GI50 (U251 CNS): 9.78 µM
TGI (U251 CNS): > 25 µM
GI50 (SF-539 CNS): 17.9 µM
TGI (SF-539 CNS): > 25 µM
GI50 (CAKI-1 renal): 9.49 µM
TGI (CAKI-1 renal): > 25 µM
GI50 (NCI/ADR-RES ovarian): > 22.4 µM
TGI (NCI/ADR-RES ovarian): > 25 µM
GI50 (RXF 393 renal): 11 µM
TGI (RXF 393 renal): > 25 µM
GI50 (HL-60(TB) leukemia): 0.387 µM
TGI (HL-60(TB) leukemia): 6.84 µM
GI50 (A549 NSCLC): 1.89 µM
TGI (A549 NSCLC): > 25 µM
GI50 (MALME-3M melanoma): 5.35 µM
TGI (MALME-3M melanoma): > 25 µM
GI50 (SF-268 CNS): > 25 µM
TGI (SF-268 CNS): > 25 µM
GI50 (NCI-H522 lung): 8.66 µM
TGI (NCI-H522 lung): > 25 µM
GI50 (TK-10 renal): 4.61 µM
TGI (TK-10 renal): 24.4 µM
GI50 (MDA-MB-435): 3.15 µM
TGI (MDA-MB-435): > 25 µM
GI50 (SNB-75 CNS): > 25 µM
TGI (SNB-75 CNS): > 25 µM
GI50 (A498 renal): 11.1 µM
TGI (A498 renal): > 25 µM
GI50 (KM12 colon): 9.48 µM
TGI (KM12 colon): > 25 µM
GI50 (HOP-62 NSCLC): > 20 µM
TGI (HOP-62 NSCLC): > 25 µM
GI50 (K-562 leukemia): 4.42 µM
TGI (K-562 leukemia): > 22.8 µM
GI50 (UACC-62 melanoma): 14.4 µM
TGI (UACC-62 melanoma): > 25 µM
GI50 (OVCAR-5 ovarian): 4.01 µM
TGI (OVCAR-5 ovarian): > 25 µM
GI50 (CCRF-CEM leukemia): 3.32 µM
TGI (CCRF-CEM leukemia): > 25 µM
GI50 (SN12C renal): > 21.1 µM
TGI (SN12C renal): > 25 µM
GI50 (OVCAR-4 ovarian): > 14.6 µM
TGI (OVCAR-4 ovarian): > 25 µM
GI50 (DU-145 prostate): 3.76 µM
TGI (DU-145 prostate): > 25 µM
GI50 (ACHN renal): 15.4 µM
TGI (ACHN renal): > 25 µM
GI50 (T-47D breast): > 18.3 µM
TGI (T-47D breast): > 25 µM
GI50 (M14 melanoma): 4.77 µM
TGI (M14 melanoma): > 25 µM
GI50 (SK-MEL-2 melanoma): 2.51 µM
TGI (SK-MEL-2 melanoma): 15.4 µM
GI50 (MCF7 breast): 0.289 µM
TGI (MCF7 breast): > 25 µM
GI50 (OVCAR-8 ovarian): 10.1 µM
TGI (OVCAR-8 ovarian): > 25 µM
GI50 (HCT-116 colon): 2.56 µM
TGI (HCT-116 colon): > 25 µM
GI50 (PC-3 prostate): > 23.4 µM
TGI (PC-3 prostate): > 25 µM
GI50 (NCI-H460 lung): 2.46 µM
TGI (NCI-H460 lung): > 25 µM
GI50 (EKVX NSCLC): > 17.8 µM
TGI (EKVX NSCLC): > 25 µM
GI50 (SNB-19 CNS): > 25 µM
TGI (SNB-19 CNS): > 25 µM
GI50 (HOP-92 NSCLC): 0.158 µM
TGI (HOP-92 NSCLC): 2.04 µM
GI50 (HS 578T breast): > 17.8 µM
TGI (HS 578T breast): > 25 µM
GI50 (MOLT-4 leukemia): 7.79 µM
TGI (MOLT-4 leukemia): > 21 µM
GI50 (UACC-257 melanoma): 2.65 µM
TGI (UACC-257 melanoma): > 25 µM
GI50 (SK-MEL-5 melanoma): 13.2 µM
TGI (SK-MEL-5 melanoma): > 25 µM
GI50 (COLO 205 colon): 2.37 µM
TGI (COLO 205 colon): 8.68 µM
GI50 (HCT-15 colon): 8.98 µM
TGI (HCT-15 colon): > 25 µM
GI50 (SF-295 CNS): > 25 µM
TGI (SF-295 CNS): > 25 µM
GI50 (RPMI-8226 leukemia): 5.53 µM
TGI (RPMI-8226 leukemia): > 21.7 µM
